Assay results taken from patent publication US12280037B2, “Method and pharmaceutical composition for treating or preventing trichomoniasis and uses thereof” (EVOFEM BIOSCIENCES, INC., priority 2020, dated 2025).
Converted amounts (≈) assume the structure as drawn. “And” between values parts separate entries of the source, which are not always exact repeats. Equal values may be shown once.

Key:
[1] = Thorough QT (TQT) study: QTc, cardiac conduction and adverse events; conditions: Moxifloxacin 400 mg oral (control)
Description: A TQT study was also conducted. The TQT study was a double-blind, randomized, placebo-controlled, 4-period, single-dose, crossover design in 52 healthy male and female subjects.

[2] = men, published studies; cited from earlier work
[3] = system: clinical isolates of T. vaginalis; test: Susceptibility testing, minimal lethal concentration (MLC), aerobic; assay type: cell-based, Trichomonas vaginalis; conditions: for MLC, mean (±SD) among all isolates / MLC, median: aerobic, 46-50 h
Description: Susceptibility testing was conducted with one hundred (100) clinical isolates of T. vaginalis.
Archived, de-identified, clinical isolates of T. vaginalis that were banked in liquid nitrogen were used for this study. The samples had been collected between July 2015 and June 2017, in accordance with institutional review board guidelines, and all patients had consented to the storage and use of their samples for subsequent testing. […] In brief, trichomonads were grown in Diamond's medium 1025 (containing trypticase soy broth, yeast extract, maltose, and calf serum) adjusted to pH 5.9 and supplemented with streptomycin at 1 g/liter and penicillin G at 100 U/ml. A hemocytometer was used to count the trichomonad population and to adjust it to a concentration of 66,666 cells/ml. Isolates were tested in microtiter plates under aerobic conditions. […] Plates were then incubated at 37° C. for 46 hours to 50 hours and read with a Zeiss Axiovert inverted microscope. The concentration of drug in the microplate wells in which no motile trichomonads were observed was reported as the MLC. […] Low-level resistance was defined as an aerobic MLC of 50 μg/ml to 100 μg/ml, moderate-level resistance as an aerobic MLC of 200 μg/ml, and high-level resistance as an aerobic MLC of >400 μg/ml. The MLCs for metronidazole and secnidazole were analyzed using the Wilcoxon signed-rank test to evaluate the differences between treatments.
Each well of a 96-well plate was filled with 150 μL of T. vaginalis suspension in Diamond's growth media (10^4 trichomonads). […] Cultures were visually assessed for survival, defined by observation of motility, through a 100× inverted microscope.

[4] = Phase I study of SYM-1219 4 grams or 6 grams: secnidazole plasma concentrations; assay type: in vivo, human
Description: Additionally, a Phase I, randomized, placebo-controlled, single-blind, two-group study, which assessed the safety, tolerability, and PK of single oral doses of SYM-1219 granules containing either 4 grams or 6 grams of secnidazole administered in approximately 8 ounces of applesauce to 16 healthy male and female subjects, was conducted to determine the supratherapeutic dose for a potential Thorough QT (“TQT”) study. Subjects were randomized 3:1, such that a total of 12 subjects received secnidazole and 4 subjects received placebo. 3 male and 3 female subjects were treated at each secnidazole dose level (i.e., 4 grams or 6 grams). Blood samples for PK assessments were collected at the following timepoints: 30 minutes prior to dosing and 3 hours, 6 hours, 8 hours and 24 hours post dose. Plasma concentrations were summarized by timepoint using descriptive statistics; noncompartmental PK parameters were not calculated.
Eligible subject were admitted to the clinical site on Day −1 and were discharged following a safety evaluation on Day 2; the in-house period was approximately 2 days. Randomization occurred after the assessments of Day −1 determined that subjects remained eligible for the study. All subject were asked to return on Day 7+/2 days for a final study visit. The maximum study duration was approximately 4 weeks to 5 weeks (including the study screening period).
Group A received a single oral dose of SYM-1219 microgranules, containing 4 grams of secnidazole (N=6) (2 packets of SYM-1219 microgranules, 2 grams of secnidazole/packet), or a placebo (N=2) (2 packets of placebo) in approximately 8 oz. of applesauce. […]
Blood samples for PK analysis were collected: 30 minutes prior to dosing and 3 hours, 6 hours, 8 hours and 24 hours postdose. […] Plasma secnidazole concentrations were determined by Celerion, Inc., using validated analytical procedures. […]

[5] = Thorough QT (TQT) study: secnidazole pharmacokinetics by gender; assay type: in vivo, human
Description: A TQT study was also conducted. […] A total of 50 subjects (29 males and 21 females) were included in the PK population. Noncompartmental PK parameters for these subjects are summarized by gender in Table 15 below.

[6] = Phase 3 study: treatment-emergent adverse events (safety population); assay type: in vivo, human; conditions: 2 grams, safety population (N = 74), TEAEs in primary phase
Description: Safety analyses, including the evaluation of adverse events, physical examinations, pelvic examinations, collection of vital signs (blood pressure, temperature, and pulse), and clinical laboratory assessments (serum chemistry, hematology, and urinalysis) was conducted at all study visits. Adverse event information was also collected on the phone call between study V2 and V3.

[7] = 100 clinical T. vaginalis isolates
[8] = 100 clinical T. vaginalis isolates, listed as secnidazole

COc1c(N2C[C@@H]3CCCN[C@@H]3C2)c(F)cc2c(=O)c(C(=O)O)cn(C3CC3)c12 [Moxifloxacin]
Overall incidence rate of TEAEs [1]: 4.3%

Cc1ncc([N+](=O)[O-])n1CC(C)O (stereo not drawn) [Secnidazole, 1-(2-hydroxypropyl)-2-methyl-5-nitromidazole]
Mean dose-normalized (to 2 grams) concentrations at 96 hours [2]: approximately 2 μg/mL
In vitro efficacy in comparison with metronidazole [3, 7]: superior efficacy in vitro
Isolates demonstrating moderate- or high-level resistance [3, 7]: none of the isolates
Isolates with a lower MLC for secnidazole than for metronidazole [3, 7]: 96%
Prevalence of low-level resistance (aerobic MLC 50 μg/ml to 100 μg/ml) [3, 7]: Four
MLC, mean (±SD) among all isolates [3, 7]: Mean: 5.9 μg/mL
MLC, median [3, 7]: Median: 1.6 μg/mL
MLC, mean (±SD) among all isolates [3, 8]: 5.9 ± 13.2 µg/mL and 5.9 µg/mL
MLC, median [3, 8]: 1.6 µg/mL (≈ 8.64 µM)
Response of control isolates with established high-level resistance to metronidazole ([3]; control isolates): responded to significantly lower levels of secnidazole
MLC in the one isolate with a higher MLC for secnidazole than for metronidazole ([3]; single clinical isolate): 3.1 µg/mL
Plasma concentrations and exposures in males versus females ([4]; 4 and 6 grams): slightly lower
Variability in plasma concentrations ([4]; across the limited sampling times, 4 and 6 grams): 4% to 29%
Dose proportionality of plasma concentrations ([4]; from 4 grams to 6 grams of secnidazole): essentially dose-proportional
Plasma concentrations and exposures in males versus females ([5]; 2 and 6 grams): slightly lower
Secnidazole exposure over the 24-hour sampling period, fold lower in male vs female subjects ([5]; Phase I study concentration-by-time data or TQT study mean PK parameters): approximately 1.5 fold
Variability in plasma concentrations ([5]; across the sampling times, 2 and 6 grams): 21% to 57%
Dose proportionality of plasma concentrations ([5]; from 2 grams to 6 grams of secnidazole): essentially dose-proportional
Time postdose up to which concentrations greater than the median MLC are maintained ([5]; men): at least 96 hours
Abdominal pain: Events n [6]: 1
Abdominal pain: Patients n (%) [6]: 1 (1.4%)
Any Adverse Event, Overall: Events n [6]: 13
Any Adverse Event, Overall: Patients n (%) [6]: 11 (14.9%)
Back pain: Events n [6]: 0
Back pain: Patients n (%) [6]: 0%
Diarrhea: Events n [6]: 1
Diarrhea: Patients n (%) [6]: 1 (1.4%)
Dysmenorrhoea: Events n [6]: 0
Dysmenorrhoea: Patients n (%) [6]: 0%
Gastrointestinal disorders, Overall: Events n [6]: 5
Gastrointestinal disorders, Overall: Patients n (%) [6]: 4 (5.4%)
General disorders and administration site conditions, Overall: Events n [6]: 0
General disorders and administration site conditions, Overall: Patients n (%) [6]: 0%
Headache: Events n [6]: 1
Headache: Patients n (%) [6]: 1 (1.4%)
Infections and infestations, Overall: Events n [6]: 3
Infections and infestations, Overall: Patients n (%) [6]: 3 (4.1%)
Menstruation irregular: Events n [6]: 0
Menstruation irregular: Patients n (%) [6]: 0%
Musculoskeletal and connective tissue disorders, Overall: Events n [6]: 1
Musculoskeletal and connective tissue disorders, Overall: Patients n (%) [6]: 1 (1.4%)
Myalgia: Events n [6]: 1
Myalgia: Patients n (%) [6]: 1 (1.4%)
Nausea: Events n [6]: 2
Nausea: Patients n (%) [6]: 2 (2.7%)
Nervous system disorders, Overall: Events n [6]: 1
Nervous system disorders, Overall: Patients n (%) [6]: 1 (1.4%)
Productive cough: Events n [6]: 1
Productive cough: Patients n (%) [6]: 1 (1.4%)
Pruritus: Events n [6]: 0
Pruritus: Patients n (%) [6]: 0%
Reproductive system and breast disorders, Overall: Events n [6]: 1
Reproductive system and breast disorders, Overall: Patients n (%) [6]: 1 (1.4%)
Respiratory, thoracic and mediastinal disorders, Overall: Events n [6]: 2
Respiratory, thoracic and mediastinal disorders, Overall: Patients n (%) [6]: 2 (2.7%)
Skin and subcutaneous tissue disorders, Overall: Events n [6]: 0
Skin and subcutaneous tissue disorders, Overall: Patients n (%) [6]: 0%
Thirst: Events n [6]: 0
Thirst: Patients n (%) [6]: 0%
Trichomoniasis (adverse event): Events n [6]: 0
Trichomoniasis (adverse event): Patients n (%) [6]: 0%
Upper-airway cough syndrome: Events n [6]: 1
Upper-airway cough syndrome: Patients n (%) [6]: 1 (1.4%)
Vomiting: Events n [6]: 1
Vomiting: Patients n (%) [6]: 1 (1.4%)
Vulvovaginal candidiasis: Events n [6]: 2
Vulvovaginal candidiasis: Patients n (%) [6]: 2 (2.7%)
Vulvovaginal mycotic infection: Events n [6]: 1
Vulvovaginal mycotic infection: Patients n (%) [6]: 1 (1.4%)
Vulvovaginal pruritus: Events n [6]: 1
Vulvovaginal pruritus: Patients n (%) [6]: 1 (1.4%)
